Data on 5 molecules can be found in patent US20260001928A1 (CORTERIA PHARMACEUTICALS, priority 2022, published 2026).

*1 amine or outer side, *2 acyl side, *3 side chain or, on linkers, in order; H or OH if unused. Where a SMILES comes first, the peptide text is derived from it. Side-chain parts run from the residue outwards. [ ]: non-standard residue; d: D form. The star is where a group is joined. C18 diacid = O=C(O)CCCCCCCCCCCCCCCCC(=O)*; C16 diacid = O=C(O)CCCCCCCCCCCCCCC(=O)*; γGlu = O=C(O)[C@H](CCC(=O)[*:2])N[*:1]; NMeI = CC[C@H](C)[C@H](NC)C(=O)O; Api = NC1(C(=O)O)CCNCC1; Dap = NC[C@H](N)C(=O)O; AEEA = NCCOCCOCC(=O)O; Ac3c = NC1(C(=O)O)CC1

For experiment [1], the target named is T1, human CRF2a receptor (Homo sapiens, UniProt Q13324).
T1 construct: expressed in transfected cells; host or cells: TeloHEAC cells
T1 sequence (Q13324 1-411): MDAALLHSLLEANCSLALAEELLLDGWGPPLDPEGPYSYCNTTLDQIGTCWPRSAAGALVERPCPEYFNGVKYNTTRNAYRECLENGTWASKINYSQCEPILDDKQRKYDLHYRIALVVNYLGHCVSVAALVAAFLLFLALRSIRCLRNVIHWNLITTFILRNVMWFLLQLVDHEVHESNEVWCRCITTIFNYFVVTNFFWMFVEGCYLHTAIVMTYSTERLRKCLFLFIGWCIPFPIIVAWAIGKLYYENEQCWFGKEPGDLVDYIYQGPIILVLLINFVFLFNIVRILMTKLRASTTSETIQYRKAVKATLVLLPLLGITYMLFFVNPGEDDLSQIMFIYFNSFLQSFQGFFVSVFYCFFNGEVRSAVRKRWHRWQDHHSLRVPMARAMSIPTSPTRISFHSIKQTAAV
Description: Activity at human CRF2a receptor, cAMP functional assay in TeloHEAC cells. In kind it is cell-based. Particulars: TeloHEAC cells stably expressing human CRF2a receptor, relative to urocortin 2 (100 nM = 100%). The procedure, abridged: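 TeloHEAC cells stably expressing human CRF2a (10000 cells/well) were treated with 16-point 1:2 compound dilutions in HBSS/20 mM HEPES with IBMX for 30 min at 37° C. cAMP was read by HTRF (665/620 nm ratio). EC50 was the concentration giving 50% activation, with 100 nM urocortin 2 set as 100%.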

The target in experiment [2] is T2, CFR1R receptor (Homo sapiens, UniProt P34998).
T2 construct: host or cells: CHO-K1 (clone 2)
T2 sequence (P34998 24-415): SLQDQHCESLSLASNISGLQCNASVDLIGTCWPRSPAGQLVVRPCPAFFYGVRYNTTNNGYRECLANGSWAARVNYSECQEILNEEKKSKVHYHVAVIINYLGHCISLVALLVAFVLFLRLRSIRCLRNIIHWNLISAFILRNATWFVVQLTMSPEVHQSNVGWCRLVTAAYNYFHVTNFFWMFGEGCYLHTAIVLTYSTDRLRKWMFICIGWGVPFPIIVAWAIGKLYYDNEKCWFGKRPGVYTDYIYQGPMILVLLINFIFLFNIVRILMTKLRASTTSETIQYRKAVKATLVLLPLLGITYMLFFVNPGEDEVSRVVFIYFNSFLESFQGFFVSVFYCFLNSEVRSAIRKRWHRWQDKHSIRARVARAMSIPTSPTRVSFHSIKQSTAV
Description: Activity at anti-target CFR1R receptor, cAMP assay in CRF1R-overexpression CHO-K1 cells. The class given is cell-based. Particulars: 100% = Sauvagine at 100 nM; for EC50: cAMP. The procedure, abridged: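 Clone 2; cryopreserved stocks (10% DMSO); 4000 cells/well final; 100% activation = Sauvagine 100 nM; otherwise as TeloHAEC protocol.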

In experiment [1], `CC[C@H](C)[C@H](NC(C)=O)C(=O)N[C@H](C(=O)N[C@@H](CC(C)C)C(=O)N[C@@H](CO)C(=O)N[C@@H](CC(C)C)C(=O)N[C@@H](CC(=O)O)C(=O)N[C@@H](C(=O)N1CCC[C@H]1C(=O)N[C@H](C(=O)N[C@@H](CCCCN)C(=O)N[C@@H](CC(C)C)C(=O)N[C@@H](CCCCNC(=O)CC[C@H](NC(=O)CCCCCCCCCCCCCCC(=O)O)C(=O)O)C(=O)N[C@@H](CCCCN)C(=O)N[C@H](C(=O)N[C@@H](CC(C)C)C(=O)N[C@@H](CC(C)C)C(=O)N[C@@H](CCC(=O)O)C(=O)N[C@@H](CCC(N)=O)C(=O)N[C@@H](CCC(=O)O)C(=O)N[C@@H](CCCCN)C(=O)N[C@@H](CCC(N)=O)C(=O)N[C@@H](CCCCN)C(=O)N[C@@H](CCCCN)C(=O)N[C@@H](CCC(N)=O)C(=O)N[C@@H](CCCNC(=N)N)C(=O)N[C@@H](CCC(=O)O)C(=O)N[C@@H](CCC(N)=O)C(=O)N[C@@H](C)C(=O)N[C@@H](CCC(=O)O)C(=O)N[C@H](C(=O)N[C@@H](CC(N)=O)C(=O)NC1(C(=O)N[C@@H](CCC(N)=O)C(=O)N[C@H](C(=O)N[C@@H](CC(C)C)C(=O)N[C@@H](C)C(=O)N[C@@H](CCC(N)=O)C(=O)N[C@H](C(N)=O)C(C)C)[C@@H](C)CC)CC1)[C@@H](C)O)[C@@H](C)CC)[C@@H](C)CC)C(C)C)C(C)C` [compound 61] (Ac-IVLSLD[dV]PIKLK([γGlu-C16 diacid])KILLEQEKQKKQREQAETN[Ac3c]QILAQV-NH2) returned an EC50 of 0.36 nM. In experiment [2], the “Emax (% I)” value stood at 3 % I and the EC50 is more than 250 nM.

As to `CC[C@H](C)[C@H](NC(C)=O)C(=O)N[C@H](C(=O)N[C@@H](CC(C)C)C(=O)N[C@@H](CO)C(=O)N[C@@H](CC(C)C)C(=O)N[C@@H](CC(=O)O)C(=O)N[C@@H](C(=O)N1CCC[C@H]1C(=O)N[C@H](C(=O)N[C@@H](CCCCN)C(=O)N[C@@H](CC(C)C)C(=O)N[C@@H](CCCCNC(=O)CC[C@H](NC(=O)CCCCCCCCCCCCCCCCC(=O)O)C(=O)O)C(=O)N[C@@H](CCCCN)C(=O)N[C@H](C(=O)N[C@@H](CC(C)C)C(=O)N[C@@H](CC(C)C)C(=O)N[C@@H](CCC(=O)O)C(=O)N[C@@H](CCC(N)=O)C(=O)N[C@@H](CCC(=O)O)C(=O)N[C@@H](CCCCN)C(=O)N[C@@H](CCC(N)=O)C(=O)N[C@@H](CCCCN)C(=O)N[C@@H](CCCCN)C(=O)N[C@@H](CCC(N)=O)C(=O)N[C@@H](CCCNC(=N)N)C(=O)N[C@@H](CCC(=O)O)C(=O)N[C@@H](CCC(N)=O)C(=O)N[C@@H](C)C(=O)N[C@@H](CCC(=O)O)C(=O)N[C@H](C(=O)N[C@@H](CC(N)=O)C(=O)N[C@@H](CCC(=O)O)C(=O)N[C@@H](CCC(N)=O)C(=O)N[C@H](C(=O)N[C@@H](CC(C)C)C(=O)N[C@@H](C)C(=O)N[C@@H](CCC(N)=O)C(=O)N[C@H](C(N)=O)C(C)C)[C@@H](C)CC)[C@@H](C)O)[C@@H](C)CC)[C@@H](C)CC)C(C)C)C(C)C` [compound 130] (Ac-IVLSLD[dV]PIKLK([γGlu-C18 diacid])KILLEQEKQKKQREQAETNEQILAQV-NH2), the EC50 in experiment [1] is 0.08 nM; in experiment [2], more than 250 nM. Further, the “Emax (% I)” value in experiment [2] amounted to 4 % I.

Consider `CC[C@H](C)[C@H](NC)C(=O)N[C@H](C(=O)N[C@@H](CC(C)C)C(=O)N[C@@H](CO)C(=O)N[C@@H](CC(C)C)C(=O)N[C@@H](CC(=O)O)C(=O)N[C@@H](C(=O)N1CCC[C@H]1C(=O)N[C@H](C(=O)N[C@@H](CCCCN)C(=O)N[C@@H](CC(C)C)C(=O)N[C@@H](CCCCNC(=O)CC[C@H](NC(=O)CCCCCCCCCCCCCCCCC(=O)O)C(=O)O)C(=O)N[C@@H](CCCCN)C(=O)N[C@H](C(=O)N[C@@H](CC(C)C)C(=O)N[C@@H](CC(C)C)C(=O)N[C@@H](CCC(=O)O)C(=O)N[C@@H](CCC(N)=O)C(=O)N[C@@H](CCC(=O)O)C(=O)N[C@@H](CCCCN)C(=O)N[C@@H](CCC(N)=O)C(=O)N[C@@H](CCCCN)C(=O)N[C@@H](CCCCN)C(=O)N[C@@H](CCC(N)=O)C(=O)N[C@@H](CCCNC(=N)N)C(=O)N[C@@H](CCC(=O)O)C(=O)N[C@@H](CCC(N)=O)C(=O)N[C@@H](C)C(=O)N[C@@H](CCC(=O)O)C(=O)N[C@H](C(=O)N[C@@H](CC(N)=O)C(=O)N[C@@H](CN)C(=O)N[C@@H](CCC(N)=O)C(=O)N[C@H](C(=O)N[C@@H](CC(C)C)C(=O)N[C@@H](C)C(=O)N[C@@H](CCC(N)=O)C(=O)N[C@H](C(N)=O)C(C)C)[C@@H](C)CC)[C@@H](C)O)[C@@H](C)CC)[C@@H](C)CC)C(C)C)C(C)C` [compound 140] (H-[NMeI]VLSLD[dV]PIKLK([γGlu-C18 diacid])KILLEQEKQKKQREQAETN[Dap]QILAQV-NH2), for which the values for the EC50 in experiment [1] and in experiment [2] were 0.17 nM and more than 250 nM, respectively. In addition, the “Emax (% I)” value in experiment [2] was 14 % I.

As for `CC[C@H](C)[C@H](NC)C(=O)N[C@H](C(=O)N[C@@H](CC(C)C)C(=O)N[C@@H](CO)C(=O)N[C@@H](CC(C)C)C(=O)N[C@@H](CC(=O)O)C(=O)N[C@@H](C(=O)N1CCC[C@H]1C(=O)N[C@H](C(=O)N[C@@H](CCCCN)C(=O)N[C@@H](CC(C)C)C(=O)N[C@@H](CCCCNC(=O)CC[C@H](NC(=O)CCCCCCCCCCCCCCCCC(=O)O)C(=O)O)C(=O)N[C@@H](CCCCN)C(=O)N[C@H](C(=O)N[C@@H](CC(C)C)C(=O)N[C@@H](CC(C)C)C(=O)N[C@@H](CCC(=O)O)C(=O)N[C@@H](CCC(N)=O)C(=O)N[C@@H](CCC(=O)O)C(=O)N[C@@H](CCCCN)C(=O)N[C@@H](CCC(N)=O)C(=O)N[C@@H](CCCCN)C(=O)N[C@@H](CCCCN)C(=O)N[C@@H](CCC(N)=O)C(=O)N[C@@H](CCCNC(=N)N)C(=O)N[C@@H](CCC(=O)O)C(=O)N[C@@H](CCC(N)=O)C(=O)N[C@@H](C)C(=O)N[C@@H](CCC(=O)O)C(=O)N[C@H](C(=O)N[C@@H](CC(N)=O)C(=O)N[C@@H](CCC(=O)O)C(=O)N[C@@H](CCC(N)=O)C(=O)N[C@H](C(=O)N[C@@H](CC(C)C)C(=O)N[C@@H](C)C(=O)N[C@@H](CCC(N)=O)C(=O)N[C@H](C(N)=O)C(C)C)[C@@H](C)CC)[C@@H](C)O)[C@@H](C)CC)[C@@H](C)CC)C(C)C)C(C)C` [compound 142] (H-[NMeI]VLSLD[dV]PIKLK([γGlu-C18 diacid])KILLEQEKQKKQREQAETNEQILAQV-NH2), the EC50 in experiment [1] was 0.07 nM; in experiment [2], more than 250 nM. Moreover, the “Emax (% I)” value in experiment [2] stood at 3 % I.

The molecule `CC[C@H](C)[C@H](NC(C)=O)C(=O)N[C@H](C(=O)N[C@@H](CC(C)C)C(=O)N[C@@H](CO)C(=O)N[C@@H](CC(C)C)C(=O)N[C@@H](CC(=O)O)C(=O)N[C@@H](C(=O)N1CCC[C@H]1C(=O)N[C@H](C(=O)N[C@@H](CCCCN)C(=O)N[C@@H](CC(C)C)C(=O)N[C@@H](CCCCNC(=O)COCCOCCNC(=O)COCCOCCNC(=O)CC[C@H](NC(=O)CCCCCCCCCCCCCCCCC(=O)O)C(=O)O)C(=O)N[C@@H](CCCCN)C(=O)N[C@H](C(=O)N[C@@H](CC(C)C)C(=O)N[C@@H](CC(C)C)C(=O)N[C@@H](CCC(=O)O)C(=O)N[C@@H](CCC(N)=O)C(=O)N[C@@H](CCC(=O)O)C(=O)N[C@@H](CCCCN)C(=O)N[C@@H](CCC(N)=O)C(=O)N[C@@H](CCCCN)C(=O)N[C@@H](CCCCN)C(=O)N[C@@H](CCC(N)=O)C(=O)N[C@@H](CCCNC(=N)N)C(=O)N[C@@H](CCC(=O)O)C(=O)N[C@@H](CCC(N)=O)C(=O)N[C@@H](C)C(=O)N[C@@H](CCC(=O)O)C(=O)N[C@H](C(=O)N[C@@H](CC(N)=O)C(=O)NC1(C(=O)N[C@@H](CCC(N)=O)C(=O)N[C@H](C(=O)N[C@@H](CC(C)C)C(=O)N[C@@H](C)C(=O)N[C@@H](CCC(N)=O)C(=O)N[C@H](C(N)=O)C(C)C)[C@@H](C)CC)CCNCC1)[C@@H](C)O)[C@@H](C)CC)[C@@H](C)CC)C(C)C)C(C)C` [compound 109] (Ac-IVLSLD[dV]PIKLK([AEEA-AEEA-γGlu-C18 diacid])KILLEQEKQKKQREQAETN[Api]QILAQV-NH2) returned a half-maximal effective concentration (EC50) in experiment [1] of 1 nM. Also, in experiment [2], the “Emax (% I)” value is on record as 4 % I and the EC50 is more than 250 nM.
